As usually defined, the IC50 is the midpoint of a concentration-inhibition curve.

This assay deals with T1, human P2Y12 receptor (Homo sapiens, UniProt Q9H244).
T1 construct: expressed in transfected cells; host or cells: CHO cells
T1 sequence (Q9H244 whole entry): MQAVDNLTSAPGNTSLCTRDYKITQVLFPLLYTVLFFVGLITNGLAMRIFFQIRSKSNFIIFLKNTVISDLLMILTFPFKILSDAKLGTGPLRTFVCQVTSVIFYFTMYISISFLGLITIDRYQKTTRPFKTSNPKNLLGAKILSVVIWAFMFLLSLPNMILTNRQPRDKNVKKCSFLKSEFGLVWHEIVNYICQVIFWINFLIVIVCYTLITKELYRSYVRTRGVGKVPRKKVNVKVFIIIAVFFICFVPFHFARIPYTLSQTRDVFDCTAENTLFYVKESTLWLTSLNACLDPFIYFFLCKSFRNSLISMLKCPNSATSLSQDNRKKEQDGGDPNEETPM
The assay can be described thus: P2Y12 receptor binding assay. Particulars: CHO cells with recombinant expression of the human P2Y12 receptor; tritium-labeled 2-methyl-S-ADP; RT, 2 hours. Here is the method: P2Y12 Receptor Binding Assay
Chinese Hamster Ovary (CHO) cells with recombinant expression of the human P2Y12 receptor were cultured in 24 well cell-culture plates. Cells were washed three times with binding buffer (50 mM Tris pH 7.4, 100 mM NaCl, 1 mM EDTA, 0.5% BSA). The cells were then incubated with 0.5 ml per well binding buffer containing tritium-labeled 2-methyl-thio-adenosine 5′-diphosphate (2-methyl-S-ADP) (between 100′000 and 300′000 dpm per well) and various concentrations of test compounds. After incubation at RT for 2 hours, cells were washed three times with binding buffer. Then, cells were solubilized by addition of 0.5 ml solubilization buffer (SDS, NaOH, EDTA). The content of each well was then transferred into beta-counter vials and 2.0 ml of Ultima Gold Scintillation liquid was added.
Take `CCCCOC(=O)N1CCN(C(=O)[C@H](CP(=O)(OCOC(C)=O)OCOC(C)=O)NC(=O)c2csc(-c3ccccc3)n2)CC1` [Example 57, 4-{(R)-3-[Bis-(acetoxymethoxy)-phosphoryl]-2-[(2-phenyl-thiazole-4-carbonyl)-amino]-propionyl}-piperazine-1-carboxylic acid butyl ester]: the IC50 was 5 nM.
Next, `CCCCOC(=O)N1CCN(C(=O)[C@H](CP(=O)(N[C@@H](C)C(=O)OCC)N[C@@H](C)C(=O)OCC)NC(=O)c2csc(-c3ccccc3)n2)CC1` [Example 58, N,N′-Bis-((S)-1-Ethoxycarbonylethyl)-(R)-2-[(2-phenyl-thiazole-4-carbonyl)-amino]-3-oxo-3-(4-butoxy-carbonyl-piperazin-1-yl)-propyl-phosphonic acid diamide]: 1220 nM; `CCCCOC(=O)N1CCN(C(=O)[C@H](CP(=O)(OCOC(=O)OCC)OCOC(=O)OCC)NC(=O)c2csc(-c3ccccc3)n2)CC1` [Example 59, 4-{(R)-3-[Bis-(ethoxycarbonyloxymethoxy)-phosphoryl]-2-[(2-phenyl-thiazole-4-carbonyl)-amino]-propionyl}-piperazine-1-carboxylic acid butyl ester]: 15 nM; `CCCCCCN(C)c1sc(C(=O)NCC(=O)N2CCN(C(=O)OCCCC)CC2)nc1-c1ccccc1` [Example 60, 4-(2-{[5-(Hexyl-methyl-amino)-4-phenyl-thiazole-2-carbonyl]-amino}-acetyl)-piperazine-1-carboxylic acid butyl ester]: 1560 nM.
In the case of `CCCCOC(=O)N1CCN(C(=O)CNC(=O)c2nc(-c3ccccc3)sc2NCCC(=O)O)CC1` [Example 61, 4-(2-{[5-(2-Carboxy-ethylamino)-2-phenyl-thiazole-4-carbonyl]-amino}-acetyl)-piperazine-1-carboxylic acid butyl ester] it was 71 nM.
In the case of `CCCCOC(=O)N1CCN(C(=O)CNC(=O)c2nc(-c3ccccc3)sc2NCCC(=O)OCC)CC1` [Example 62, 4-(2-{[5-(2-Ethoxycarbonyl-ethylamino)-2-phenyl-thiazole-4-carbonyl]-amino}-acetyl)-piperazine-1-carboxylic acid butyl ester] it was 134 nM.
